Like-named read-outs stand apart in the source and are kept apart here.
Legend:
[1] = test system: CEM (lymphoblastic leukemia); assay: 3-day MTT assay, CEM cells; format: cell-based, human; conditions: 195 ng/ml phytochemical alone
Protocol: (§1) Biological activities of the materials produced as described in Examples 1 to 5 were determined using cultured cells. The IC50s of Boswellin (“BA1”), AKBA enriched peracetylated boswellin (“BA2”) and AKBA enriched boswellin (“BA3”) in various human and murine prostate, leukemia, melanoma, lung and breast cancer cell lines were determined. The IC50s were determined using a standard MTT assay using CEM (lymphoblastic leukemia), Du 145 (prostate cancer), PC-3 (prostate cancer), LNCaP (prostate cancer), Sk-MEL2 (human melanoma), P388D1 (murine leukemia), K562 (human mycloid leukemia), A549 (human lung cancer), MCF-7 (human breast cancer), B16F (murine melanoma) cancer cell lines (Table 2).
(§2) DU145, PC-3 and CEM cells in culture we studied to determine whether other natural products have synergistic effects with AKBA enriched boswellin. Methods for culturing the cells are described above in Example 6. To different samples of cells, we added AKBA enriched boswellin in concentrations from 0 to 120 μg/ml, resveratrol in concentrations from 0 to 3125 ng/ml, baicalin in concentrations from 0 to 3125 ng/ml and licochalcone A in concentrations from 0 to 800 μg/ml. In analogous concentrations combinations of AKBA enriched boswellin and resveratrol, baicalin and licochalcone A were studied. Cell survival was measured using the MTT assay described above.

DU145 (prostate cancer) = assay: 3-day MTT assay, DU145 cells; format: cell-based, human; conditions: DU145, 195 ng/ml phytochemical alone
Protocol: as §1, §2

PC-3 (prostate cancer) = assay: 3-day MTT assay, PC-3 cells; format: cell-based, human
Protocol: as §2, with “The IC50s were determined using a standard MTT assay using CEM (lymphoblastic leukemia), Du 145 (prostate cancer), PC-3 (prostate cancer), LNCaP (prostate cancer), Sk-MEL2 (human melanoma), P388D1 (murine leukemia), K562 (human mycloid leukemia), A549 (human lung cancer), MCF-7 (human breast cancer), B16F (murine melanoma) cancer cell lines (Table 2). […] DU145,” for “DU145,”

LNCaP cells = assay: Growth inhibition by cell counting, LNCaP cells; format: cell-based; conditions: Homo sapiens, 100 μg/ml, read-out: growth inhibition as compared to controls
Protocol: DU145 and LNCaP cells were obtained from ATCC. The cells were grown in Eagle's MEM supplemented with 1 mM sodium pyruvate, 0.1 mM glutamine, 1.5 g/l sodium bicarbonate, and 10% fetal bovine serum. A confluent plate of cells contained approximately 2×10^6 DU145cells and 10^6 LNCaP cells.
The test drug dissolved in DMSO at a concentration of 100 mg/ml was added to 6 test plates and to control plates. Two control and two drug plates each were harvested with addition of 1 ml/plate of trypsin-EDTA at 24, 48, and 72 hrs and counted by […]. The trypsinized plates were incubated for 3 min at 37° C., and 5 ml DMEM was added to each plate. Cells were collected in 15 ml tubes, and 2 ml of each cell suspension was added to 20 ml Isoton and counted.

In the case of `Oc1ccc(C=Cc2cc(O)cc(O)c2)cc1` [resveratrol], the “% cell survival (conc. phytochemical)” value [1] is reported as 85 (195 ng/ml resveratrol) % and the “% cell survival (conc. phytochemical)” value (DU145 (prostate cancer)) is reported as 89 (195 ng/ml resveratrol) %.
In the case of `C=CC(C)(C)c1cc(/C=C/C(=O)c2ccc(O)cc2)c(OC)cc1O` [licochalcone A], the “% cell survival (conc. phytochemical)” value (PC-3 (prostate cancer); PC-3, 3.1 μg/ml phytochemical alone) is reported as 98 (3.1 μg/ml licochalcone A) %.
In the case of `O=C(O)[C@H]1O[C@@H](Oc2cc3oc(-c4ccccc4)cc(=O)c3c(O)c2O)[C@H](O)[C@@H](O)[C@@H]1O` [baicalin], the “% cell survival (conc. phytochemical)” value [1] is reported as 85 (195 ng/ml baicalin) %, the “% cell survival (conc. phytochemical)” value (DU145 (prostate cancer)) is reported as 78 (195 ng/ml baicalin) % and the “% cell survival (conc. phytochemical)” value (PC-3 (prostate cancer); PC-3, 12 ng/ml phytochemical alone) is reported as 93 (12 ng/ml baicalin) %.
Work on `O=c1c(-c2ccc(O)cc2)coc2cc(O)cc(O)c12` [Genistein] yielded an inhibition at 100 µg/mL (LNCaP cells; 24 h) of 32%, an inhibition at 100 µg/mL (LNCaP cells; 48 h) of 49.4% and an inhibition at 100 µg/mL (LNCaP cells; 72 h) of 60.8%.

Source: US20030199581A1, “Boswellin compositions enhanced with 3-beta-acetyl-11-keto-beta-boswellic acid ("AKBA") industrial manufacture and uses” (priority 2002, published 2003)
